Where “and” joins values, the source holds several entries; their conditions need not be identical. Identical values can stand only once.
Key:
Type in all cases: in vivo
[1] = test system: Tobacco (var Samsun) plantlets in agar; test: HST + HPPD herbicide effects on tobacco seedlings in agar; settings: mesotrione 0.004 ppm, 0.75% v/v DMSO, no haloxydine, agar, 7 DAT
Description: Tobacco (var Samsun) plantlets germinated aseptically in agar made up in 1/3 strength Murashige and Skoog salts medium along with various doses of herbicide. Bleaching damage to emerging plantlets is assessed 7 DAT. The plantlets are kept covered under clear perspex and grown at 18° C. (night) and 24° C. (day) under a 16 h day (˜500-900 umol/m^2), 8 h darkness regime. Herbicide affected plantlets are bleached white and grow less. Synergistic/antagonistic responses are calculated using the Colby formula (Colby, S. R. (Calculating synergistic and antagonistic responses of herbicide Combinations”, Weeds, 15, p. 20-22, 1967).

weeds = test: Glasshouse weed control by HST/HPPD (mesotrione) mixtures, post-emergence; settings: for % damage, mesotrione alone / % damage, 1 g ai ha^−1 mesotrione / colby / % damage, no-mesotrione: post-emergence; for % damage, mesotrione alone: mesotrione 1 g/ha; for colby: difference to Colby expectation
Description: Weed seeds are planted out in trays containing suitable soil (for example 50% peat, 50% John Innes soil no 3) and grown in the glass house conditions under 24-27° C. day; 18-21° C. night and approximately a 14 h (or longer in UK summer) photoperiod. Humidity is ˜65% and light levels up to 2000 μmol/m^2 at bench level. Trays are sprayed with test chemicals dissolved in water with 0.2-0.25% X-77 surfactant and sprayed from a boom on a suitable track sprayer moving at about 2 mph in a suitable track sprayer (for example a DeVries spray chamber with the nozzle about 2 inches from the plant tops). Spray volume is suitably 500-1000 l/ha. Sprays are carried out both pre-emergence and over small plants at about 7-12 d post-emergence
Plants are assessed 14 DAT and herbicidal damage is scored on a scale from 0 to 100%. The HST inhibitor compound 2.30 (designated compound A in table 16 and 17), haloxydine (compound 1.1) and compound 2.13 (designated compound AE in tables 16 and 17) are sprayed at rates between 0 and 500 g/ha.

[2] = test system: Chlamydomonas HST T0 tobacco lines; test: Glasshouse spray test, Chlamydomonas HST transgenic tobacco; set-up: herbicidal damage score: scale not given here; settings: for blch (% bleaching at the meristem relative to control plants) / ht (% height reduction relative to control plants): 100 g, individual T0 lines
Excerpt: In just the same way the Chlamydomonas HST gene sequence (AM285678) is codon-optimised for tobacco and cloned behind the double Cauliflower mosaic virus 35S promoter and Tobacco mosaic virus enhancer sequences and in front of a nos gene terminator, cloned into a binary vector and transformed into tobacco to produce a population of T0 plants.

[3] = test system: Arabidopsis HST transgenic tobacco plants; test: Glasshouse spray test, Arabidopsis HST transgenic tobacco; settings: D2 line (Arabidopsis HST, segregating T1), individual plants

CS(=O)(=O)c1ccc(C(=O)C2C(=O)CCCC2=O)c([N+](=O)[O-])c1 [Mesotrione, mesotrione, reference compound]
% Injury (bleaching), mesotrione by itself [1]: 35% | damage (weeds; 1 g/ha, 14 DAT, pre- and post-emergence sprays): < 10% | % damage, mesotrione alone (weeds; ALOMY, 14 DAT): 0% | % damage, mesotrione alone (weeds; ECHCG, 14 DAT): 8% | % damage, mesotrione alone (weeds; SETFA, 14 DAT): 0% | herbicidal damage score ([2]; Chlamydomonas HST T0 tobacco events (one value per event), 15 g/ha of mesotrione, 21 DAT): 70 and 55 and 85 and 65 and 80 and 75 and 60 and 100

CC(C)C(=O)Oc1c(-c2c(F)ccc(Br)c2Cl)c(=O)n(CC(F)F)c2nccnc12 [Compound 2.30]
% damage, 1 g ai ha^−1 mesotrione (weeds; ALOMY, 16 g/ha + 1 g ai/ha mesotrione, 14 DAT): 2% | colby (weeds; ALOMY, 16 g/ha + 1 g ai/ha mesotrione): 0 | % damage, no-mesotrione (weeds; ALOMY, 16 g/ha, 14 DAT): 2% | % damage, 1 g ai ha^−1 mesotrione (weeds; ALOMY, 31 g/ha + 1 g ai/ha mesotrione, 14 DAT): 3% | colby (weeds; ALOMY, 31 g/ha + 1 g ai/ha mesotrione): 0 | % damage, no-mesotrione (weeds; ALOMY, 31 g/ha, 14 DAT): 3% | % damage, 1 g ai ha^−1 mesotrione (weeds; ALOMY, 63 g/ha + 1 g ai/ha mesotrione, 14 DAT): 10% | colby (weeds; ALOMY, 63 g/ha + 1 g ai/ha mesotrione): 5 | % damage, no-mesotrione (weeds; ALOMY, 63 g/ha, 14 DAT): 5% | % damage, 1 g ai ha^−1 mesotrione (weeds; ALOMY, 125 g/ha + 1 g ai/ha mesotrione, 14 DAT): 20% | colby (weeds; ALOMY, 125 g/ha + 1 g ai/ha mesotrione): 7 | % damage, no-mesotrione (weeds; ALOMY, 125 g/ha, 14 DAT): 13% | % damage, 1 g ai ha^−1 mesotrione (weeds; ALOMY, 250 g/ha + 1 g ai/ha mesotrione, 14 DAT): 22% | colby (weeds; ALOMY, 250 g/ha + 1 g ai/ha mesotrione): 7 | % damage, no-mesotrione (weeds; ALOMY, 250 g/ha, 14 DAT): 15% | % damage, 1 g ai ha^−1 mesotrione (weeds; ALOMY, 500 g/ha + 1 g ai/ha mesotrione, 14 DAT): 35% | colby (weeds; ALOMY, 500 g/ha + 1 g ai/ha mesotrione): 12 | % damage, no-mesotrione (weeds; ALOMY, 500 g/ha, 14 DAT): 23% | % damage, 1 g ai ha^−1 mesotrione (weeds; ECHCG, 16 g/ha + 1 g ai/ha mesotrione, 14 DAT): 17% | colby (weeds; ECHCG, 16 g/ha + 1 g ai/ha mesotrione): −2 | % damage, no-mesotrione (weeds; ECHCG, 16 g/ha, 14 DAT): 12% | % damage, 1 g ai ha^−1 mesotrione (weeds; ECHCG, 31 g/ha + 1 g ai/ha mesotrione, 14 DAT): 38% | colby (weeds; ECHCG, 31 g/ha + 1 g ai/ha mesotrione): 13 | % damage, no-mesotrione (weeds; ECHCG, 31 g/ha, 14 DAT): 18% | % damage, 1 g ai ha^−1 mesotrione (weeds; ECHCG, 63 g/ha + 1 g ai/ha mesotrione, 14 DAT): 42% | colby (weeds; ECHCG, 63 g/ha + 1 g ai/ha mesotrione): −5 | % damage, no-mesotrione (weeds; ECHCG, 63 g/ha, 14 DAT): 42% | % damage, 1 g ai ha^−1 mesotrione (weeds; ECHCG, 125 g/ha + 1 g ai/ha mesotrione, 14 DAT): 53% | colby (weeds; ECHCG, 125 g/ha + 1 g ai/ha mesotrione): −7 | % damage, no-mesotrione (weeds; ECHCG, 125 g/ha, 14 DAT): 57% | % damage, 1 g ai ha^−1 mesotrione (weeds; ECHCG, 250 g/ha + 1 g ai/ha mesotrione, 14 DAT): 68% | colby (weeds; ECHCG, 250 g/ha + 1 g ai/ha mesotrione): 0 | % damage, no-mesotrione (weeds; ECHCG, 250 g/ha, 14 DAT): 65% | % damage, 1 g ai ha^−1 mesotrione (weeds; ECHCG, 500 g/ha + 1 g ai/ha mesotrione, 14 DAT): 75% | colby (weeds; ECHCG, 500 g/ha + 1 g ai/ha mesotrione): 6 | % damage, no-mesotrione (weeds; ECHCG, 500 g/ha, 14 DAT): 67% | % damage, 1 g ai ha^−1 mesotrione (weeds; SETFA, 16 g/ha + 1 g ai/ha mesotrione, 14 DAT): 18% | colby (weeds; SETFA, 16 g/ha + 1 g ai/ha mesotrione): −5 | % damage, no-mesotrione (weeds; SETFA, 16 g/ha, 14 DAT): 23% | % damage, 1 g ai ha^−1 mesotrione (weeds; SETFA, 31 g/ha + 1 g ai/ha mesotrione, 14 DAT): 42% | colby (weeds; SETFA, 31 g/ha + 1 g ai/ha mesotrione): 10 | % damage, no-mesotrione (weeds; SETFA, 31 g/ha, 14 DAT): 32% | % damage, 1 g ai ha^−1 mesotrione (weeds; SETFA, 63 g/ha + 1 g ai/ha mesotrione, 14 DAT): 42% | colby (weeds; SETFA, 63 g/ha + 1 g ai/ha mesotrione): 8 | % damage, no-mesotrione (weeds; SETFA, 63 g/ha, 14 DAT): 33% | % damage, 1 g ai ha^−1 mesotrione (weeds; SETFA, 125 g/ha + 1 g ai/ha mesotrione, 14 DAT): 62% | colby (weeds; SETFA, 125 g/ha + 1 g ai/ha mesotrione): 5 | % damage, no-mesotrione (weeds; SETFA, 125 g/ha, 14 DAT): 57% | % damage, 1 g ai ha^−1 mesotrione (weeds; SETFA, 250 g/ha + 1 g ai/ha mesotrione, 14 DAT): 75% | colby (weeds; SETFA, 250 g/ha + 1 g ai/ha mesotrione): 10 | % damage, no-mesotrione (weeds; SETFA, 250 g/ha, 14 DAT): 65% | % damage, 1 g ai ha^−1 mesotrione (weeds; SETFA, 500 g/ha + 1 g ai/ha mesotrione, 14 DAT): 75% | colby (weeds; SETFA, 500 g/ha + 1 g ai/ha mesotrione): 5 | % damage, no-mesotrione (weeds; SETFA, 500 g/ha, 14 DAT): 70% | % damage at 7 DAT ([3]; 150 gai/ha): 65% and 40% (2×) and 50% and 55% and 60% (2×) and 90% | % damage at 7 DAT ([3]; 300 gai/ha): 60% (2×) and 80% and 95% and 98% and 70% and 90% (2×) | % damage at 7 DAT ([3]; 450 gai/ha): 35% (2×) and 20% and 55% (2×) and 60% and 65% and 70% | blch (% bleaching at the meristem relative to control plants) ([2]; 17 DAT): 0% (14×) and 15% (3×) and 20% and 65% and 10% (2×) and 90% and 75% | ht (% height reduction relative to control plants) ([2]; 17 DAT): 15% (2×) and 10% (2×) and 55% (3×) and 25% and 30% (2×) and 0% (2×) and 5% and 8% and 20% (3×) and 40% (2×) and 50% and 35% and 90% and 85% | blch (% bleaching at the meristem relative to control plants) ([2]; 26 DAT): 0% (19×) and 25% and 85% (2×) and 90% (2×) | ht (% height reduction relative to control plants) ([2]; 26 DAT): 30% (5×) and 20% (6×) and 70% and 10% and 80% and 35% (2×) and 90% (2×) and 50% and 25% and 75% (2×) and 95% and 60%

From patent US20110173718A1, “HERBICIDE TOLERANT PLANTS” (SYNGENTA CROP PROTECTION, INC., priority 2008, published 2011)
